In this assay the target is T1, KRAS G12C and cRAF interaction (Homo sapiens, UniProt P01116, C118S/C51S/C80L/G12C).
T1 construct: truncated version comprising amino acids 1-169
T1 sequence (P01116 1-169 isoform P01116-2 G12C/C51S/C80L/C118S): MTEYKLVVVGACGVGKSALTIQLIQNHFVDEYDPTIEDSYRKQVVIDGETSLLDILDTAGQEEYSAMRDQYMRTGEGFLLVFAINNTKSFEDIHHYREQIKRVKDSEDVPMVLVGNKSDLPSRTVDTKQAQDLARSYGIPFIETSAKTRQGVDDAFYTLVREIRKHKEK
Briefly: Inhibition of KRAS G12C and cRAF binding (AlphaScreen). The note with it: KRAS G12C (Cys-light, aa 1-169) preloaded with GMPPNP, cRaf RBD (aa 50-131), 2 hours incubation. The class given is biochemical. As to the method:
The AlphaScreen technology was used to determine IC50s for compound inhibition of KRAS G12C (present as the Cys-light (C51S, C80L and C118S), truncated version comprising amino acids 1-169) and cRAF interaction. Compounds were diluted in 100% DMSO and each compound concentration was spotted at 200 nl/well onto low volume, white 384 well plates. The KRAS G12C contained a biotin-AviTag and the cRaf, as Ras-binding domain (amino acids 50-131, RBD), was GST-tagged. KRAS G12C was preloaded with the GTP analogue Guanosine 5′-[β,γ-imido]triphosphate (GMPPNP). The KRAS G12C was diluted in 25 mM Hepes, pH 7.4, 150 mM NaCl, 5 mM MgCl2, 0.01% TritonX-100 and 10 μM GMPPNP and added at 10 μl/well to compound-spotted plates resulting in a DMSO concentration of 2%. Plates were incubated for 2 hours. A mixture of RBD and the AlphaScreen streptavidin donor and glutathione acceptor beads diluted in 25 mM Hepes, pH 7.4, 150 mM NaCl, 5 mM MgCl2, 0.01% TritonX-100 and 2% DMSO was then added at 10 μl/well and incubated for 60-90 minutes before the samples were read for emission at 570 nm after excitation of the donor beads at 680 nm. All incubations were performed at room temperature. The final top compound concentration was 50 μM with 1:3 titrations for 10-point dose response curves. Final assay conditions were 0.5 nM KRAS G12C, 0.75 nM RBD and 5 μg/ml each of AlphaScreen donor and acceptor beads. IC50S were determined using nonlinear regression fit of [inhibitor] vs. response (4 parameters).
A counter assay was also set up to rule out inhibitors of the AlphaScreen technology itself. Compound plates were incubated for 2 hours as above with buffer only.
The AlphaScreen beads were added as above except biotin-AviTag-GST was substituted for the RBD. Samples were read and analyzed as above.
Background: In Alpha technology, singlet oxygen from a donor bead excites a nearby acceptor bead.
By IC50 is commonly meant the point on the concentration scale where inhibition reaches its midpoint. Low values mean inhibition by little substance, high ones a need for much substance. In the case of `C#Cc1c(F)ccc2cccc(-c3ncc4c(N5CCN(C(=O)/C=C/c6cc(C)nc(C)n6)C6(COC6)C5)nc(OC[C@@]56CCCN5C[C@H](F)C6)nc4c3F)c12` [Example 48, (E)-3-(2,6-dimethylpyrimidin-4-yl)-1-(8-(7-(8-ethynyl-7-fluoronaphthalen-1-yl)-8-fluoro-2-(((2R,7aS)-2-fluorotetrahydro-1H-pyrrolizin-7a(5H)-yl)methoxy)pyrido[4,3-d]pyrimidin-4-yl)-2-oxa-5,8-diazaspiro[3.5]nonan-5-yl) prop-2-en-1-one], the 50% inhibitory concentration (IC50) is 10 to 100 nM.
The value for `O=C(/C=C/CN1[C@@H]2CC[C@H]1COC2)N1CCN(c2nc(OC[C@@]34CCCN3C[C@H](F)C4)nc3c(F)c(-c4cc(O)cc(Cl)c4C4CC4)ncc23)CC12COC2` [Example 29, (E)-4-((1R,5S)-3-oxa-8-azabicyclo[3.2.1]octan-8-yl)-1-(8-(7-(3-chloro-2-cyclopropyl-5-hydroxyphenyl)-8-fluoro-2-(((2R,7aS)-2-fluorotetrahydro-1H-pyrrolizin-7a(5H)-yl)methoxy)pyrido[4,3-d]pyrimidin-4-yl)-2-oxa-5,8-diazaspiro[3.5]nonan-5-yl) but-2-en-1-one] was under 10 nM; that for `CN(C)C/C=C/C(=O)N1CCN(c2nc(OC[C@@]34CCCN3C[C@H](F)C4)nc3c(F)c(-c4cccc(Cl)c4C(F)(F)F)ncc23)CC12COC2` [Example 71] was 100 to 500 nM; that for `C=CC(=O)N1CCN(c2nc(OC[C@@]34CCCN3C[C@H](F)C4)nc3c(F)c(-c4cccc5ccc(F)c(Cl)c45)ncc23)CC12COC2` [Example 33, 1-(8-(7-(8-chloro-7-fluoronaphthalen-1-yl)-8-fluoro-2-(((2R,7aS)-2-fluorotetrahydro-1H-pyrrolizin-7a(5H)-yl)methoxy)pyrido[4,3-d]pyrimidin-4-yl)-2-oxa-5,8-diazaspiro[3.5]nonan-5-yl) prop-2-en-1-one] was 10 to 100 nM.
With `CN(C)C/C=C/C(=O)N1CCN(c2nc(OC[C@@]34CCCN3C[C@H](F)C4)nc3c(F)c(-c4cccc5cccc(Cl)c45)ncc23)CC12COC2` [Example 25, (E)-1-(8-(7-(8-chloronaphthalen-1-yl)-8-fluoro-2-(((2R,7aS)-2-fluorotetrahydro-1H-pyrrolizin-7a(5H)-yl)methoxy)pyrido[4,3-d]pyrimidin-4-yl)-2-oxa-5,8-diazaspiro[3.5]nonan-5-yl)-4-(dimethylamino)but-2-en-1-one] the figure was 10 to 100 nM.
`Cc1nccc(/C=C(\F)C(=O)N2CCN(c3nc(OC[C@@]45CCCN4C[C@H](F)C5)nc4c(F)c(-c5cccc6cccc(Cl)c56)ncc34)CC23COC3)n1` [Example 61]: the IC50 is at least 500 nM.
Compound `Cc1nccc(/C=C/C(=O)N2CCN(c3nc(OC[C@@]45CCCN4C[C@H](F)C5)nc4c(F)c(-c5cccc6cccc(Cl)c56)ncc34)CC23COC3)n1` [Example 2, (E)-1-(8-(7-(8-chloronaphthalen-1-yl)-8-fluoro-2-(((2R,7aS)-2-fluorotetrahydro-1H-pyrrolizin-7a(5H)-yl)methoxy)pyrido[4,3-d]pyrimidin-4-yl)-2-oxa-5,8-diazaspiro[3.5]nonan-5-yl)-3-(2-methylpyrimidin-4-yl) prop-2-en-1-one] returned an IC50 of 100 to 500 nM.
The value for `O=C(/C=C/CN1C[C@@H]2C[C@H]1CO2)N1CCN(c2nc(OC[C@@]34CCCN3C[C@H](F)C4)nc3c(F)c(-c4cccc(Cl)c4C(F)(F)F)ncc23)CC12COC2` [Example 57, (E)-4-((1S,4S)-2-oxa-5-azabicyclo[2.2.1]heptan-5-yl)-1-(8-(7-(3-chloro-2-(trifluoromethyl)phenyl)-8-fluoro-2-(((2R,7aS)-2-fluorotetrahydro-1H-pyrrolizin-7a(5H)-yl)methoxy)pyrido[4,3-d]pyrimidin-4-yl)-2-oxa-5,8-diazaspiro[3.5]nonan-5-yl) but-2-en-1-one] was 10 to 100 nM; that for `C#Cc1c(F)ccc2cccc(-c3ncc4c(N5CCN(C(=O)C=C)C6(COC6)C5)nc(OC[C@@]56CCCN5C[C@H](F)C6)nc4c3F)c12` [Example 50, 1-(8-(7-(8-ethynyl-7-fluoronaphthalen-1-yl)-8-fluoro-2-(((2R,7aS)-2-fluorotetrahydro-1H-pyrrolizin-7a(5H)-yl)methoxy)pyrido[4,3-d]pyrimidin-4-yl)-2-oxa-5,8-diazaspiro[3.5]nonan-5-yl) prop-2-en-1-one] was under 10 nM; that for `O=C(/C=C/CN1CCOCC1)N1CCN(c2nc(OC[C@@]34CCCN3C[C@H](F)C4)nc3c(F)c(-c4cccc5ccc(F)c(F)c45)ncc23)CC12COC2` [Example 18, (E)-1-(8-(7-(7,8-difluoronaphthalen-1-yl)-8-fluoro-2-(((2R,7aS)-2-fluorotetrahydro-1H-pyrrolizin-7a(5H)-yl)methoxy)pyrido[4,3-d]pyrimidin-4-yl)-2-oxa-5,8-diazaspiro[3.5]nonan-5-yl)-4-morpholinobut-2-en-1-one] was 10 to 100 nM.
The value for `C=CC(=O)N1CCN(c2nc(OC[C@@]34CCCN3C[C@H](F)C4)nc3c(F)c(-c4c(C)cc(F)c5[nH]ncc45)ncc23)CC12COC2` [Example 52, 1-(8-(8-fluoro-7-(7-fluoro-5-methyl-1H-indazol-4-yl)-2-(((2R,7aS)-2-fluorotetrahydro-1H-pyrrolizin-7a(5H)-yl)methoxy)pyrido[4,3-d]pyrimidin-4-yl)-2-oxa-5,8-diazaspiro[3.5]nonan-5-yl) prop-2-en-1-one] was at least 500 nM.
The value for `C=CC(=O)N1[C@@H](C)CN(c2nc(OC[C@@]34CCCN3C[C@H](F)C4)nc3c(F)c(-c4cccc5ccc(F)c(F)c45)ncc23)CC12COC2` [Example 70] was at least 500 nM; that for `O=C(/C=C/CN1CCOCC1)N1CCN(c2nc(OC[C@@]34CCCN3C[C@H](F)C4)nc3c(F)c(-c4cc(O)cc(Cl)c4C4CC4)ncc23)CC12COC2` [Example 30, (E)-1-(8-(7-(3-chloro-2-cyclopropyl-5-hydroxyphenyl)-8-fluoro-2-(((2R,7aS)-2-fluorotetrahydro-1H-pyrrolizin-7a(5H)-yl)methoxy)pyrido[4,3-d]pyrimidin-4-yl)-2-oxa-5,8-diazaspiro[3.5]nonan-5-yl)-4-morpholinobut-2-en-1-one] was under 10 nM; that for `C#Cc1c(F)ccc2cccc(-c3ncc4c(N5CCN(C(=O)/C=C/CN6[C@@H]7CC[C@H]6COC7)C6(COC6)C5)nc(OC[C@@]56CCCN5C[C@H](F)C6)nc4c3F)c12` [Example 34, (E)-4-((1R,5S)-3-oxa-8-azabicyclo[3.2.1]octan-8-yl)-1-(8-(7-(8-ethynyl-7-fluoronaphthalen-1-yl)-8-fluoro-2-(((2R,7aS)-2-fluorotetrahydro-1H-pyrrolizin-7a(5H)-yl)methoxy)pyrido[4,3-d]pyrimidin-4-yl)-2-oxa-5,8-diazaspiro[3.5]nonan-5-yl) but-2-en-1-one] was under 10 nM.
For the compound `O=C(/C=C/CN1[C@@H]2CC[C@H]1COC2)N1CCN(c2nc(OC[C@@]34CCCN3C[C@H](F)C4)nc3c(F)c(-c4cccc5ccc(F)c(F)c45)ncc23)CC12COC2` [Example 21, (E)-4-((1R,5S)-3-oxa-8-azabicyclo[3.2.1]octan-8-yl)-1-(8-(7-(7,8-difluoronaphthalen-1-yl)-8-fluoro-2-(((2R,7aS)-2-fluorotetrahydro-1H-pyrrolizin-7a(5H)-yl)methoxy)pyrido[4,3-d]pyrimidin-4-yl)-2-oxa-5,8-diazaspiro[3.5]nonan-5-yl) but-2-en-1-one], the 50% inhibitory concentration (IC50) is under 10 nM.
With `C#Cc1c(F)ccc2cccc(-c3ncc4c(N5CCN(C(=O)/C=C/CN6C[C@@H]7C[C@H]6CO7)C6(COC6)C5)nc(OC[C@@]56CCCN5C[C@H](F)C6)nc4c3F)c12` [Example 42, (E)-4-((1S,4S)-2-oxa-5-azabicyclo[2.2.1]heptan-5-yl)-1-(8-(7-(8-ethynyl-7-fluoronaphthalen-1-yl)-8-fluoro-2-(((2R,7aS)-2-fluorotetrahydro-1H-pyrrolizin-7a(5H)-yl)methoxy)pyrido[4,3-d]pyrimidin-4-yl)-2-oxa-5,8-diazaspiro[3.5]nonan-5-yl) but-2-en-1-one] the figure was under 10 nM.
The value for `C=CC(=O)N1CCN(c2nc(OC[C@@]34CCCN3C[C@H](F)C4)nc3c(F)c(-c4cc(O)cc(Cl)c4C(F)(F)F)ncc23)CC12COC2` [Example 54, 1-(8-(7-(3-chloro-5-hydroxy-2-(trifluoromethyl)phenyl)-8-fluoro-2-(((2R,7aS)-2-fluorotetrahydro-1H-pyrrolizin-7a(5H)-yl)methoxy)pyrido[4,3-d]pyrimidin-4-yl)-2-oxa-5,8-diazaspiro[3.5]nonan-5-yl) prop-2-en-1-one] was under 10 nM.

These data come from patent US20260207615A1, “FLUOROPYRIDOPYRIMIDINE AND FLUOROQUINAZOLINE DERIVATIES AND METHODS OF USE THEREOF” (Frontier Medicines Corporation, priority 2022, published 2026).
